Experiments:
HeLa cells = test: Cytotoxicity against mammalian cells (MTS assay); assay type: cell-based
Description: The cytotoxicity concentration of antibacterial compounds that produces half maximal decrease in viability (CC50) against mammalian cells (HeLa, ATCC CCL-2.2) was determined as described. The effect of compounds on HeLa cell viability was assessed in triplicate by measuring the mitochondrial activity using MTS assays according to the manufacturer’s instructions (Cell Titer 96 proliferation assay, Promega). The cells were incubated for 72 hours in RPMI1640 medium containing the compounds at final concentrations ranging from 64 to 0.125 μg/ml. CC50 was determined using a standard curve of serially diluted untreated cells in each experiment.

[1] = Lipid II binding by Surface Plasmon Resonance; conditions: SPR, immobilized 3-Lipid II, 25°C
Description: Short-chain water-soluble Lipid II containing a lipid tail of three isoprene units was generated and purified essentially as described. Typically, M. flavus vesicles (120 μmol lipid-Pi) were incubated together with 500 μmol UDP-GlcNAc, 500 μmol UDP-MurNAC-pentapeptide and 400 μmol farnesyl phosphate in 100 mM Tris-HCl pH 8.0, 5 mM MgCl2. The incubation lasted two hours at room temperature for 3-P. The synthesis of 3-Lipid II was followed using RP-8 reversed phase TLC (Merck) developed in 75% methanol. For purification, the membranes were removed by centrifugation at 40,000 x g and the supernatant was collected and loaded on a C18 HPLC column and eluted with a linear gradient from 50 mM ammonium bicarbonate to 100% methanol in 30 minutes. Farnesyl-Lipid II (3-Lipid II) eluted at approximately 60% methanol. Its identity was confirmed by mass spectroscopy. Surface Plasmon Resonance binding experiments were carried out on a BIAcore T100 system (BIAcore Inc., Piscataway, NY) at 25°C. The assay buffer was 10 mM HEPES, 150 mM NaCl, 0.05% surfactant P20, pH 7.4 (± 3 mM EDTA) supplemented with 10% DMSO. 3-Lipid II (50 RUs) was immobilized on CM5 sensor chips using the amine-coupling chemistry recommended by the manufacturer. For initial determination of binding, compounds were introduced into the flow-cells (30 μl/min) in the running buffer at 10 μM. Resonance signals were corrected for nonspecific binding by subtracting the background of the control flow-cell. After each analysis, the sensor chip surfaces were regenerated with 50 mM NaOH for 30 s at a flow rate 100 μl/min, and equilibrated with the buffer prior to next injection. For binding kinetics studies, binding isotherms were analyzed with manufacturer-supplied software for BIAcore T100.

A. baumanii ATCC 19606 = test: Antibacterial activity (MIC, broth dilution); assay type: cell-based, Acinetobacter baumanii; conditions: CLSI, in µg/mL
Excerpt: Staphylococcus aureus ATCC 29213, Escherichia coli ATCC 25922, Enterococcus faecalis ATCC 29212, Streptococcus pneumonia ATCC 49619 and Acinetobacter baumanii ATCC 19606 were obtained from Microbiologics (St. Cloud, MN). E. faecalis ATCC 51575, ATCC 51299 and REMEL C99707 and E. faecium ATCC 51559 (MDR), REMEL IH79985 and REMEL C110914 were generously provided by the Laboratory of Pathology, University of Maryland Baltimore School of Medicine. Unless stated otherwise, chemicals and reagents were purchased from Sigma.
(§1) Determination of the Minimal Inhibitory Concentrations (MIC) by dilution was carried out by broth dilution according to CLSI standards.

P. aeruginosa ATCC 27853 = test: Antibacterial activity (MIC, broth dilution); assay type: cell-based; conditions: CLSI
Description: as §1

S. aureus MRSA 1094 = test: Antibacterial activity (MIC, broth dilution); assay type: cell-based; conditions: CLSI
Description: as §1

E. aerogenes ATCC 13048 = test: Antibacterial activity (MIC, broth dilution); assay type: cell-based; conditions: CLSI
Description: as §1

E. cloacae ATCC 13047 = test: Antibacterial activity (MIC, broth dilution); assay type: cell-based; conditions: CLSI
Description: as §1

P. aeruginosa X13273 = test: Antibacterial activity (MIC, broth dilution); assay type: cell-based; conditions: CLSI, in µg/mL
Description: as §1

[2] = test system: S. aureus HFH-30123 (MRSA); test: Antibacterial activity (MIC, broth dilution); assay type: cell-based; conditions: CLSI
Description: as §1

[3] = test system: K. pneumoniae NR-15411 (KPC); test: Antibacterial activity (MIC, broth dilution); assay type: cell-based; conditions: CLSI
Description: as §1

P. aeruginosa PA01 = test: Antibacterial activity (MIC, broth dilution); assay type: cell-based; conditions: CLSI
Description: as §1

E. faecium EF1509 (VRE) = test: Antibacterial activity (MIC, broth dilution); assay type: cell-based; conditions: CLSI, in µg/mL
Description: as §1

[4] = test system: K. pneumoniae NR-15410 (KPC); test: Antibacterial activity (MIC, broth dilution); assay type: cell-based; conditions: CLSI
Description: as §1

E. faecium F118 (VRE) = test: Antibacterial activity (MIC, broth dilution); assay type: cell-based; conditions: CLSI, in µg/mL
Description: as §1

| Structure (SMILES) | CC50% (72 h HeLa cells) (HeLa cells) | Kd [1] | Antibacterial activity (MIC) A. baumanii ATCC 19606 (A. baumanii ATCC 19606) | Antibacterial activity (MIC) P. aeruginosa ATCC 27853 (P. aeruginosa ATCC 27853) | Antibacterial activity (MIC) S. aureus MRSA 1094 (S. aureus MRSA 1094) | Antibacterial activity (MIC) E. aerogenes ATCC 13048 (E. aerogenes ATCC 13048) | Antibacterial activity (MIC) E. cloacae ATCC 13047 (E. cloacae ATCC 13047) | Antibacterial activity (MIC) P. aeruginosa X13273 (P. aeruginosa X13273) | Antibacterial activity (MIC) S. aureus HFH-30123 (MRSA) [2] | Antibacterial activity (MIC) K. pneumoniae NR-15411 (KPC) [3] | Antibacterial activity (MIC) P. aeruginosa PA01 (P. aeruginosa PA01) | Antibacterial activity (MIC) E. faecium EF1509 (VRE) (E. faecium EF1509 (VRE)) | Antibacterial activity (MIC) K. pneumoniae NR-15410 (KPC) [4] | Antibacterial activity (MIC) E. faecium F118 (VRE) (E. faecium F118 (VRE)) |
| --- | --- | --- | --- | --- | --- | --- | --- | --- | --- | --- | --- | --- | --- | --- |
| Cn1cc(/C=C/c2cc(-c3ccccc3)cc(-c3ccccc3)[o+]2)c2ccccc21.F[B-](F)(F)F [6jc66-1] | 1.36 | 2.9 ± 0.3 µM | 45.25 | ≥ 64 µg/mL | 2.83 µg/mL | ≥ 64 µg/mL | ≥ 64 µg/mL | >=64 | 4 µg/mL | ≥ 64 µg/mL | ≥ 64 µg/mL | 4 | ≥ 64 µg/mL | 8 |
| Cc1ccc(-c2cc(/C=C/C=C/c3ccc(N(C)C)cc3)[o+]c(-c3ccc(C)cc3)c2)cc1.F[B-](F)(F)F [6jc51-2] | <.78125 | 9.5 ± 2 µM | 32 | ≥ 64 µg/mL | 2 µg/mL | ≥ 64 µg/mL | ≥ 64 µg/mL | >=64 | 4 µg/mL | ≥ 64 µg/mL | ≥ 64 µg/mL | 0.5 | 64 µg/mL | 2 |
| Cn1cc(/C=C/c2cc(-c3ccc(C(C)(C)C)cc3)cc(-c3ccc(C(C)(C)C)cc3)[o+]2)c2ccccc21.F[B-](F)(F)F [6jc66-3] | 5.68 | 60 ± 11 µM | >=64 | ≥ 64 µg/mL | 8 µg/mL | ≥ 64 µg/mL | ≥ 64 µg/mL | >=64 | 8 µg/mL | ≥ 64 µg/mL | ≥ 64 µg/mL | 4 | ≥ 64 µg/mL | 11.31 |
| CN(C)c1ccc(/C=C/c2cc(-c3ccccc3)cc(-c3ccccc3)[o+]2)cc1.F[B-](F)(F)F [6jc39] | 1.31 | 39 ± 4 µM | 16 | ≥ 64 µg/mL | 2 µg/mL | ≥ 64 µg/mL | ≥ 64 µg/mL | >=64 | 4 µg/mL | ≥ 64 µg/mL | ≥ 64 µg/mL | 4 | 64 µg/mL | 4 |
| Cc1ccc(-c2cc(/C=C/c3cn(C)c4ccccc34)[o+]c(-c3ccc(C)c(C)c3)c2)cc1C.F[B-](F)(F)F [6jc66-4] | 0.92 | 27.9 ± 2 µM | 64 | ≥ 64 µg/mL | 2 µg/mL | ≥ 64 µg/mL | ≥ 64 µg/mL | >=64 | 2 µg/mL | ≥ 64 µg/mL | ≥ 64 µg/mL | 2 | 64 µg/mL | 4 |
| C(=C\c1c[nH]c2ccccc12)/c1cc(-c2ccccc2)cc(-c2ccccc2)[o+]1.F[B-](F)(F)F [Jc-49-1] | 2.2 | 0.17 ± 0.05 µM | >=64 | ≥ 64 µg/mL | 8 µg/mL | ≥ 64 µg/mL | ≥ 64 µg/mL | >=64 | 8 µg/mL | ≥ 64 µg/mL | ≥ 64 µg/mL | 16 | ≥ 64 µg/mL | 16 |
| Cc1ccc(-c2cc(/C=C/c3c[nH]c4ccccc34)[o+]c(-c3ccc(C)cc3)c2)cc1.F[B-](F)(F)F [6jc-53-2] | 1.12 | 10 ± 3 µM | >=64 | ≥ 64 µg/mL | 2 µg/mL | ≥ 64 µg/mL | ≥ 64 µg/mL | >=64 | 4 µg/mL | ≥ 64 µg/mL | ≥ 64 µg/mL | 8 | ≥ 64 µg/mL | 5.657 |
| CN(C)c1ccc(/C=C/C=C/c2cc(-c3ccc(Cl)cc3)cc(-c3ccc(Cl)cc3)[o+]2)cc1.F[B-](F)(F)F [6jc43-2] | >32 | – | >=64 | ≥ 64 µg/mL | ≥ 64 µg/mL | ≥ 64 µg/mL | ≥ 64 µg/mL | >=64 | ≥ 64 µg/mL | ≥ 64 µg/mL | ≥ 64 µg/mL | 64 | ≥ 64 µg/mL | >=64 |
| Cc1ccc(-c2cc(/C=C/c3ccc(N(C)C)cc3)[o+]c(-c3ccc(C)cc3)c2)cc1.F[B-](F)(F)F [6jc51-1] | <.78125 | 9.2 ± 2 µM | 8 | – | 1 µg/mL | 64 µg/mL | 64 µg/mL | 45.25 | 2 µg/mL | 64 µg/mL | 64 µg/mL | 0.5 | 16 µg/mL | 2 |
| CCc1ccc(-c2cc(/C=C/c3ccc(N(C)C)cc3)[o+]c(-c3ccc(CC)cc3)c2)cc1.F[B-](F)(F)F [6jc64-1] | <.78125 | – | 16 | ≥ 64 µg/mL | 4 µg/mL | ≥ 64 µg/mL | ≥ 64 µg/mL | >=64 | 4 µg/mL | ≥ 64 µg/mL | ≥ 64 µg/mL | 4 | ≥ 64 µg/mL | 5.66 |

Source: publication PMC5077133, “Towards Development of Small Molecule Lipid II Inhibitors as Novel Antibiotics” (PLoS ONE, 2016)
